In US11712438B2, “Phenyl derivatives as PGE2 receptor modulators” (IDORSIA PHARMACEUTICALS LTD, priority 2017, dated 2023):
Blank lines part the entries; values can stand above or below the molecule they belong to.

What was measured:
Experiment in all cases: cell-based
PTGER2 (EP2) = PTGER2 (EP2) (Homo sapiens, UniProt P43116)
Description: The assay is using the PathHunter™ HEK 293 PTGER2 and PTGER4 b-arrestin cell lines from DiscoverX. The system is based on the Enzyme Fragment Complementation Technology. Two complementing fragments of the b-galactosidase enzyme are expressed within stably transfected cells. The larger portion of b-gal, termed EA for Enzyme Acceptor, is fused to the C-terminus of b-arrestin 2. The smaller fragment, termed ProLink™ tag, is fused to PTGER2 (EP2) or PTRGER4 (EP4) at the C-terminus. Upon activation, b-arrestin is recruited which forces the interaction of ProLink and EA, allowing complementation of the two fragments of b-gal and the formation of a functional enzyme which is capable of hydrolysing the substrate and generating a chemiluminescent signal.
The HEK 293 PTGER2 b-arrestin cells (DiscoverX 93-021-4C1) are detached from culture dishes with a cell dissociation buffer (Invitrogen, 13151-014), and collected in growing medium (GM: DMEM+Glutamax-I (Invitrogen 32430)/10% FCS, 1% Penicilin/streptomycin). 5000 cells per well of a 384 well plate (white with white bottom Greiner 781080) are seeded in 20 ul per well of GM. Plate is incubated at 37° C., 5% CO2 for 24 hours.
Stock solutions of test compounds are made at a concentration of 10 mM in DMSO, and serially diluted in DMSO to concentrations required for inhibition dose response curves (tested concentration range 10 μM-2 nM or 1 μM-0.2 nM).
PGE2 (Cayman 14010, stock solution: 10 mM in DMSO) is used as agonist at 5 μM final concentration, corresponding to EC80.
Five microliters of diluted compounds are transferred into the assay plate. Plate is pre-incubated 15 minutes at 37° C. Then five microliters of PGE2 (final conc. 5 μM) are transferred into the assay plate. Plate is incubated 120 minutes at 37° C.
Twelve μl of reagent are transferred to the assay plate and incubate for 1 hour at room temperature in the dark. Luminescence counts are read on a BMG Fluostar Optima reader according to manufacturer's instructions.
For each compound concentration calculate of the percentage of activity compared to DMSO control value as average±STDEV. (each concentration is measured in duplicate)
(§1) When compounds were measured multiple times, mean values are given.

EP4 = EP4 (Homo sapiens, UniProt P35408);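 further: inhibition of PGE2-evoked (6 nM) cAMP accumulation in BT549 breast cancer cells endogenously expressing EP4, cAMP read by HTRF competitive immunoassay after 30 min at room temperature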
Sequence of EP4 (P35408 whole entry): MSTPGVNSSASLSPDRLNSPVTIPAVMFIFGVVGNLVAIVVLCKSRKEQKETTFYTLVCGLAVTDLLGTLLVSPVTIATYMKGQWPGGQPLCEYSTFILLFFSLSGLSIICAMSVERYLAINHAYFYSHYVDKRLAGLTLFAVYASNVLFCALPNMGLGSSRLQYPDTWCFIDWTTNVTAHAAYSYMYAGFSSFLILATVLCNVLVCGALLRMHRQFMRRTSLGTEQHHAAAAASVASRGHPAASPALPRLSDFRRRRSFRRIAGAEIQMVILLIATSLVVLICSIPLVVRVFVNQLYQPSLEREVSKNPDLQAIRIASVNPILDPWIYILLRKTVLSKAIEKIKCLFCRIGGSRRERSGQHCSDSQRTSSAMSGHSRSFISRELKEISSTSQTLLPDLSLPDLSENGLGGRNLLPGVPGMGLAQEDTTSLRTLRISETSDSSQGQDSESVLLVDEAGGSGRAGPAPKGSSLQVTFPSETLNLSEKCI
Description: Human tumor cell lines expressing endogenously either EP4 or EP2 are used and cAMP accumulation in cells upon PGE2 stimulation is monitored.
As a detection method for cAMP the HTRF (homogeneous time resolved fluorescence) Cisbio kit (HTRF cAMP dynamic 2 kit 20′000 tests Cisbio Cat. #62AM4PEC) was used, which is based on a competitive immunoassay using a Cryptate-labeled anti-cAMP antibody and d2-labeled cAMP. Native cAMP produced by cells or unlabeled cAMP (for the standard curve) compete with exogenously added d2-labeled cAMP (acceptor) for binding to monoclonal anti-cAMP-Eu3+ Cryptate (donor). A FRET signal (Fluorescence Resonance Energy Transfer) is obtained only if the labeled anti-cAMP antibody binds the d2 labelled cAMP, thus the specific signal (i.e. energy transfer) is inversely proportional to the concentration of cAMP in the standard or sample.
The BT549 cells (NCI/No. 0507282) are detached from culture dishes with a cell dissociation buffer (Invitrogen, 13151-014), and collected in growing medium (GM: RPM11640 (Invitrogen 21875)/10% FCS, 1% Penicilin/streptomycin). Cells are counted washed and resuspended in assay buffer (AB; HBSS, 20 mM HEPES, 0.2% BSA; 2 mM IBMX). 4′000 cells in 5 μl of AB are seeded per well of a small volume 384 well plate (black with flat bottom, Greiner 784076).
Stock solutions of test compounds are made at a concentration of 10 mM in DMSO, and serially diluted in DMSO to concentrations required for inhibition dose response curves (tested concentration range 30 μM-0.4 nM; 30 μM-0.015 nM or 1 μM-0.01 nM).
PGE2 (Cayman 14010, stock solution: 6 μM in DMSO) is used as agonist at 6 nM final concentration, corresponding to EC80.
Two point five microliters of diluted compounds are transferred into the assay plate. Plate is pre-incubated 45 minutes at room temperature. Subsequently, 2.5 microliters of PGE2 (final conc. 6 nM) are transferred into the assay plate. Plate is incubated 30 minutes at room temperature.
For each compound concentration the percentage of cAMP compared to DMSO control value as average±STDEV (each concentration is measured in duplicate) is calculated.
as §1

PTRGER4 (EP4) = PTRGER4 (EP4) (Homo sapiens, UniProt P35408);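 further: assay plate preincubated 15 min at 37 °C, after which PGE2 was added at 20 nM final and incubation continued 120 min at 37 °C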
Sequence of PTRGER4 (EP4) (P35408 whole entry): as above

EP2 = EP2 (Homo sapiens, UniProt P43116);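 further: SF295 glioblastoma cells with endogenous EP2 only, PGE2-stimulated cAMP accumulation read by HTRF competitive immunoassay, 45 min pre-incubation then 30 min at room temperature, IBMX in buffer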
Sequence of EP2 (P43116 whole entry): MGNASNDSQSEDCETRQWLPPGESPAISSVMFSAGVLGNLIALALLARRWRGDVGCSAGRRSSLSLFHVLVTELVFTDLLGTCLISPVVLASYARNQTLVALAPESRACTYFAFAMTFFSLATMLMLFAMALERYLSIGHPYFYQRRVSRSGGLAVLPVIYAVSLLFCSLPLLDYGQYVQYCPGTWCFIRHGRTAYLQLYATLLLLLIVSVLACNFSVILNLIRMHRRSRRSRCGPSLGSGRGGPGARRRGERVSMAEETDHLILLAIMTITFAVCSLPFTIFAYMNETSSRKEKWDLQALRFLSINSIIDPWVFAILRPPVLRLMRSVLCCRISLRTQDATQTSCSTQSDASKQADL

Sequence of PTGER2 (EP2) (P43116 whole entry): as above

Structure (SMILES): CCOc1cc(-c2cc(NCCc3ccc(Br)cc3)nc(C)n2)sc1-c1noc(=O)[nH]1 [Example 157, 3-(5-{6-[2-(4-Bromo-phenyl)-ethylamino]-2-methyl-pyrimidin-4-yl}-3-ethoxy-thiophen-2-yl)-[1,2,4]oxadiazol-5(4H)-one]
IC50 (PTGER2 (EP2)): 64 nM
IC50 (EP4): 34 nM
IC50 (PTRGER4 (EP4)): 57 nM
IC50 (EP2): 99 nM

Structure (SMILES): CCOc1cc(-c2cc(NCCc3c(F)cc(Br)cc3F)ncn2)sc1CCC(=O)O [Example 44, 3-(5-{6-[2-(4-Bromo-2,6-difluoro-phenyl)-ethylamino]-pyrimidin-4-yl}-3-ethoxy-thiophen-2yl)-propionic acid]
IC50 (PTGER2 (EP2)): 44 nM
IC50 (EP4): 38 nM
IC50 (PTRGER4 (EP4)): 62 nM
IC50 (EP2): 120 nM

Structure (SMILES): CCOc1cc(-c2cc(NCCc3c(F)cc(Cl)cc3F)ncn2)sc1-c1noc(=O)[nH]1 [Example 105, 3-(5-{6-[2-(4-Chloro-2,6-difluoro-phenyl)-ethylamino]-pyrimidin-4-yl}-3-ethoxy-thiophen-2yl)-[1,2,4]oxadiazol-5(4H)-one]
IC50 (PTGER2 (EP2)): 11 nM
IC50 (EP4): 25 nM
IC50 (PTRGER4 (EP4)): 9 nM
IC50 (EP2): 40 nM

Structure (SMILES): CCOc1cc(-c2cc(NCCc3ccc(SC)cc3OC)ncn2)ccc1C(=O)O [Example 6, 2-Ethoxy-4-{6-[2-(2-methoxy-4-methylsulfanyl-phenyl)-ethylamino]-pyrimidin-4-yl}-benzoic acid]
IC50 (PTGER2 (EP2)): 1350 nM
IC50 (EP4): 573 nM
IC50 (PTRGER4 (EP4)): 1210 nM
IC50 (EP2): 702 nM

Now from value to molecule:

IC50 (PTGER2 (EP2)): 81 nM
IC50 (EP4): 165 nM
IC50 (PTRGER4 (EP4)): 50 nM
IC50 (EP2): 184 nM
Structure (SMILES): CCOc1cc(-c2cc(NCCc3c(F)cc(Br)cc3F)ncn2)ccc1OCCC(=O)O [Example 45, 3-(4-{6-[2-(4-Bromo-2,6-difluoro-phenyl)-ethylamino]-pyrimidin-4-yl}-2-ethoxy-phenoxy)-propionic acid]

IC50 (PTGER2 (EP2)): 77 nM
IC50 (EP4): 42 nM
IC50 (PTRGER4 (EP4)): 104 nM
IC50 (EP2): 40 nM
Structure (SMILES): CCOc1cc(-c2cc(NCCc3cc(OC)ccc3OC)ncn2)sc1C(=O)O [Example 72, 5-{6-[2-(2,5-Dimethoxy-phenyl)-ethylamino]-pyrimidin-4-yl}-3-ethoxy-thiophene-2-carboxylic acid]

IC50 (PTGER2 (EP2)): 358 nM
IC50 (EP4): 440 nM
IC50 (PTRGER4 (EP4)): 1090 nM
IC50 (EP2): 311 nM
Structure (SMILES): CCOc1cc(-c2cc(NCCc3ccc(Br)cc3)ncn2)ccc1C(=O)O [Example 11, 4-{6-[2-(4-Bromo-phenyl)-ethylamino]-pyrimidin-4-yl}-2-ethoxy-benzoic acid]
